Assay [1] concerns the target human activated kallikrein enzyme (Homo sapiens, UniProt P03952). The assay is described as follows: Plasma kallikrein inhibition, fluorogenic PFR-AMC substrate, 500 pM activated kallikrein format. It is filed as biochemical. As to conditions: 500 pM activated kallikrein, 300 uM PFR-AMC, 30 min preincubation, 10 min reaction; read-out: Primary Dose Response Assay: Average EC50. In short, it runs like this: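 Enzyme (500 pM) was preincubated with inhibitor for 30 min at room temperature in 20 mM Tris pH 7.5, 1 mM EDTA, 150 mM NaCl, 0.1% PEG-400 and 0.1% Triton X-100. The reaction was started with 300 uM PFR-AMC, run 10 min, and fluorescence read at 460 nm (380 nm excitation). EC50 derived.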

A further assay deals with T1, plasma kallikrein (Homo sapiens, UniProt P03952).
T1 construct: from tissue
Nature of the assay: Neat human plasma assay, FXIIa contact pathway-activated, PFR-AMC substrate. The assay is classed as biochemical. As to conditions: citrated human plasma 78% final, 10 nM human FXIIa, 100 μM PFR-AMC; read-out: Human Plasma Assay: IC90. As to the method: To analyze inhibition of plasma kallikrein in an ex vivo setting, the potency of compounds was measure in contact pathway-activated plasma assays. In a fluorogenic peptide substrate assay, test compounds dissolved in DMSO were added to sodium citrate collected human or rat plasma in a 96-well microplate. Alternatively, citrated plasma was collected from rats administered the compounds orally or by IV. 10 nM of human FXIIa (Enzyme Research Laboratories) diluted in pKal buffer (20 mM Tris-HCl, pH 7.5, 150 mM NaCl, 1 mM EDTA, 0.1% PEG-8000, and 0.1% Triton X-100) was added to the plasma, followed by the 100 μM of the profluorescent, synthetic plasma kallikrein substrate PFR-AMC (also diluted in pKal buffer). Final plasma concentration in the reaction was 78%. Fluorescence was immediately monitored by excitation/emission wavelengths of 360 nm/480 nm respectively over a period of 5 minutes in a microplate reader. The resulting linear increase in fluorescence emission (reflecting pKal proteolysis of PFR-AMC substrate) was fit to extract a proteolytic rate (fluorescent units over time), and this rate was subsequently plotted against compound inhibitor concentration. Resulting plots were fit to a standard 4-parameter IC50/IC90 equation to determine min/max values, IC50/90, and slope. All experimental steps were performed at room temperature. Table 50 provides results of the assay.

The structures appear in SMILES notation. Bounds are passed on as bounds.

Chain of human activated kallikrein enzyme (P03952 391-638 limits assumed): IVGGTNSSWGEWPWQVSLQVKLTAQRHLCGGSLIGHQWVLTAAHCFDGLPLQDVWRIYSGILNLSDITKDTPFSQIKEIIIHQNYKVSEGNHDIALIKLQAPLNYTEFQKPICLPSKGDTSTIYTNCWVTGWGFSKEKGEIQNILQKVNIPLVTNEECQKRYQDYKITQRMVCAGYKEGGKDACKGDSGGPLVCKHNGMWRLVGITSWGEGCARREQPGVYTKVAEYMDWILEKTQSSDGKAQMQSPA
Chain of human activated kallikrein enzyme (P03952 20-390 partner limits assumed): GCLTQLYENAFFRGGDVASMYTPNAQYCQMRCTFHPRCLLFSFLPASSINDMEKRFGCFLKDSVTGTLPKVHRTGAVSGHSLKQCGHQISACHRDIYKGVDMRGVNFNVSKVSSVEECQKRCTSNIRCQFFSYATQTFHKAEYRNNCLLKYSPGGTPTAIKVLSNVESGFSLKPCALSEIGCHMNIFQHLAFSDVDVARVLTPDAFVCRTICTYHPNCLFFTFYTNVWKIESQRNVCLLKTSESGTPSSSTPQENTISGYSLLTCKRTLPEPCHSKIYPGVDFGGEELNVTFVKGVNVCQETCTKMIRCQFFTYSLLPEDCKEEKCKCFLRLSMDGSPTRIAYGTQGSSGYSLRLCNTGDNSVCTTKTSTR
T1 sequence (P03952 391-638 limits assumed): as the sequence (P03952 391-638 limits assumed) above
T1 sequence (P03952 20-390 partner limits assumed): as the sequence (P03952 20-390 partner limits assumed) above

In general, EC50 refers to the concentration that produces a half-maximal response. Usually IC90 stands for the concentration needed for an effect of 90%. As to `CCN1C(=O)CN(c2cc(C3CC3)cn3cc(CNc4cc(NC(=O)[C@H]5C[C@@H]5c5nccc(C)n5)ncn4)nc23)C1=O` [Example 385, (1S,2S)-N-(6-(((6-cyclopropyl-8-(3-ethyl-2,4-dioxoimidazolidin-1-yl)imidazo[1,2-a]pyridin-2-yl)methyl)amino)pyrimidin-4-yl)-2-(4-methylpyrimidin-2-yl)cyclopropane-1-carboxamide], the EC50 in assay [1] is < 1 nM. For the same compound, at plasma kallikrein, the IC90 was < 400 nM.
For `O=C(Nc1cc(NCc2cn3cc(C4CC4)cc(N4CCNC4=O)c3n2)ncn1)[C@H]1C[C@@H]1c1cc(Cl)ccn1` [Example 394, (1S,2S)-2-(4-chloropyridin-2-yl)-N-(6-(((6-cyclopropyl-8-(2-oxoimidazolidin-1-yl)imidazo[1,2-a]pyridin-2-yl)methyl)amino)pyrimidin-4-yl)cyclopropane-1-carboxamide], in assay [1], the EC50 was < 1 nM. The IC90 at plasma kallikrein was 400 to 1500 nM.
The corresponding values for `CN1CCN(c2cc(C3CC3)cn3cc(CNc4cc(NC(=O)[C@H]5C[C@@H]5c5cc(Cl)ccn5)ncn4)nc23)CC1` (racemic) [Example I-192, rac-(1S*,2S*)-2-(4-chloropyridin-2-yl)-N-(6-(((6-cyclopropyl-8-(4-methylpiperazin-1-yl)imidazo[1,2-a]pyridin-2-yl)methyl)amino)pyrimidin-4-yl)cyclopropane-1-carboxamide] are < 1 nM and 1500 to 10000 nM.
As for `O=C(Nc1cc(NCc2cn3cc(C4CC4)cc(N4CCNC4=O)c3n2)ncn1)[C@H]1C[C@@H]1c1cccc(Cl)c1` [Example 309, (1S,2S)-2-(3-chlorophenyl)-N-(6-(((6-cyclopropyl-8-(2-oxoimidazolidin-1-yl)imidazo[1,2-a]pyridin-2-yl)methyl)amino)pyrimidin-4-yl)cyclopropane-1-carboxamide], the EC50 in assay [1] was < 1 nM. Moreover, the IC90 at plasma kallikrein is 1500 to 10000 nM.
For `N#Cc1ccc(Cl)c(F)c1[C@H]1C[C@@H]1C(=O)Nc1cc(NCc2cn3cc(C4CC4)ccc3n2)ncn1` (racemic) [Example 50, rac-(1S*,2S*)-2-(3-chloro-6-cyano-2-fluorophenyl)-N-(6-(((6-cyclopropylimidazo[1,2-a]pyridin-2-yl)methyl)amino)pyrimidin-4-yl)cyclopropane-1-carboxamide], in that order: 1 to 10 nM and 10000 to 48000 nM.
For `O=C(Nc1cc(NCc2cn3cc(C4CC4)cc(N4CC(=O)N(C5CC5)C4=O)c3n2)ccn1)[C@H]1C[C@@H]1c1cccc(Cl)c1` [Example 513, (1S,2S)-2-(3-chlorophenyl)-N-(4-(((6-cyclopropyl-8-(3-cyclopropyl-2,4-dioxoimidazolidin-1-yl)imidazo[1,2-a]pyridin-2-yl)methyl)amino)pyridin-2-yl)cyclopropane-1-carboxamide], in that order: < 1 nM and 1500 to 10000 nM.
For `O=C(Nc1nsc(NCc2cn3cc(C4CC4)ccc3n2)n1)[C@H]1C[C@@H]1c1cc(Cl)ccn1` (racemic) [Example 614], the EC50 in assay [1] is 1 to 10 nM. For the same compound, the IC90 on plasma kallikrein was in the range of 10000 to 48000 nM.
Regarding `Cc1ccnc([C@H]2C[C@@H]2C(=O)Nc2nc(C)nc(OCc3cn4cc(C5CC5)cc(N5CC(=O)N(C)C5=O)c4n3)n2)n1` [Example 573, (1S,2S)—N-(4-((6-cyclopropyl-8-(3-methyl-2,4-dioxoimidazolidin-1-yl)imidazo[1,2-a]pyridin-2-yl)methoxy)-6-methyl-1,3,5-triazin-2-yl)-2-(4-methylpyrimidin-2-yl)cyclopropane-1-carboxamide], the EC50 in assay [1] is < 1 nM. Also, the IC90 on plasma kallikrein lay within 400 to 1500 nM.
For the compound `O=C(Nc1cc(NCc2cn3cc(C4CC4)cc(NC4COC4)c3n2)ccn1)[C@H]1C[C@@H]1c1cccc(Cl)c1` [Example I-26, (1S,2S)-2-(3-chlorophenyl)-N-(4-(((6-cyclopropyl-8-(oxetan-3-ylamino)imidazo[1,2-a]pyridin-2-yl)methyl)amino)pyridin-2-yl)cyclopropane-1-carboxamide], the EC50 in assay [1] was < 1 nM. Besides, the IC90 at plasma kallikrein lay in the range of 1500 to 10000 nM.
For `COC(=O)CCc1cc(C2CC2)cn2cc(CNc3ccnc(NC(=O)[C@H]4C[C@@H]4c4cccc(Cl)c4)c3)nc12` [Example I-239, methyl 3-(2-(((2-((1S,2S)-2-(3-chlorophenyl)cyclopropane-1-carboxamido)pyridin-4-yl)amino)methyl)-6-cyclopropylimidazo[1,2-a]pyridin-8-yl)propanoate], in that order: < 1 nM and 1500 to 10000 nM.
For `O=C(Nc1cc(NCc2cn3cc(C4CC4)cc(N4CCS(=O)(=O)CC4)c3n2)ncn1)[C@H]1C[C@@H]1c1cc(Cl)ccn1` [Example 326, (1S,2S)-2-(4-chloropyridin-2-yl)-N-(6-(((6-cyclopropyl-8-(1,1-dioxidothiomorpholino)imidazo[1,2-a]pyridin-2-yl)methyl)amino)pyrimidin-4-yl)cyclopropane-1-carboxamide], in that order: < 1 nM and 400 to 1500 nM.
The corresponding values for `O=C(Nc1cc(NCc2cn3cc(C4CC4)cc(N4CCOC4=O)c3n2)ncn1)[C@H]1C[C@@H]1c1cccc(Cl)c1` [Example I-174, (1S,2S)-2-(3-chlorophenyl)-N-(6-(((6-cyclopropyl-8-(2-oxooxazolidin-3-yl)imidazo[1,2-a]pyridin-2-yl)methyl)amino)pyrimidin-4-yl)cyclopropane-1-carboxamide] are < 1 nM and 1500 to 10000 nM.
With `O=C(Nc1cc(NCc2cn3cc(C4CC4)cc(N4C[C@@H]5C[C@@H]5C4=O)c3n2)ncn1)[C@H]1C[C@@H]1c1cccc(Cl)c1` (racemic) [Example 457, rac-(1S,2S)-2-(3-chlorophenyl)-N-(6-(((6-cyclopropyl-8-((1R*,5S*)-2-oxo-3-azabicyclo[3.1.0]hexan-3-yl)imidazo[1,2-a]pyridin-2-yl)methyl)amino)pyrimidin-4-yl)cyclopropane-1-carboxamide], in assay [1], the EC50 was in the range of 1 to 10 nM. Besides, on plasma kallikrein, the IC90 lay within 400 to 1500 nM.
For `Cc1ncnc([C@H]2C[C@@H]2C(=O)Nc2cc(NCc3cn4cc(C5CC5)cc(N5CC(=O)N(C)C5=O)c4n3)ncn2)n1` (racemic) [Example 495, rac-(1S*,2S*)-N-(6-(((6-cyclopropyl-8-(3-methyl-2,4-dioxoimidazolidin-1-yl)imidazo[1,2-a]pyridin-2-yl)methyl)amino)pyrimidin-4-yl)-2-(4-methyl-1,3,5-triazin-2-yl)cyclopropane-1-carboxamide], in assay [1], the EC50 fell in the range of 1 to 10 nM. For the same compound, the 90% effect concentration (IC90) at plasma kallikrein lay within 400 to 1500 nM.
For `O=C(Nc1cc(N2C[C@@H](O)C[C@@H]2c2cn3cc(C4CC4)ccc3n2)ccn1)[C@H]1C[C@@H]1c1cccc(Cl)c1` [Example 282, (1S,2S)-2-(3-chlorophenyl)-N-(4-((2R,4S)-2-(6-cyclopropylimidazo[1,2-a]pyridin-2-yl)-4-hydroxypyrrolidin-1-yl)pyridin-2-yl)cyclopropane-1-carboxamide], the EC50 in assay [1] lay in the range of 1 to 10 nM. Also, on plasma kallikrein, the IC90 lay within 1500 to 10000 nM.
Turning to `CN1CCN(c2cc(C3CC3)cn3cc(CNc4cc(NC(=O)[C@H]5C[C@@H]5c5cccc(Cl)c5)ncn4)nc23)CC1` [Example I-2, (1S,2S)-2-(3-chlorophenyl)-N-(6-(((6-cyclopropyl-8-(4-methylpiperazin-1-yl)imidazo[1,2-a]pyridin-2-yl)methyl)amino)pyrimidin-4-yl)cyclopropane-1-carboxamide], the EC50 in assay [1] is < 1 nM. On plasma kallikrein, the IC90 lay in the range of 400 to 1500 nM.
For the compound `Cc1ccnc([C@H]2C[C@@H]2C(=O)Nc2cc(NCc3cn4cc(C5CC5)cc(N5CC(=O)N(C)C5=O)c4n3)nc(C(F)(F)F)n2)n1` (racemic) [Example 501, rac-(1S*,2S*)-N-(6-(((6-cyclopropyl-8-(3-methyl-2,4-dioxoimidazolidin-1-yl)imidazo[1,2-a]pyridin-2-yl)methyl)amino)-2-(trifluoromethyl)pyrimidin-4-yl)-2-(4-methylpyrimidin-2-yl)cyclopropane-1-carboxamide], the EC50 in assay [1] was < 1 nM. Also, the IC90 at plasma kallikrein lay in the range of 400 to 1500 nM.
As to `CCOC(=O)CCc1cc(C2CC2)cn2cc(CNc3ccnc(NC(=O)[C@H]4C[C@@H]4c4cccc(Cl)c4)c3)nc12` [Example I-240, ethyl 3-(2-(((2-((1S,2S)-2-(3-chlorophenyl)cyclopropane-1-carboxamido)pyridin-4-yl)amino)methyl)-6-cyclopropylimidazo[1,2-a]pyridin-8-yl)propanoate], the half-maximal effective concentration (EC50) in assay [1] is 1 to 10 nM. The IC90 at plasma kallikrein lay in the range of 1500 to 10000 nM.
Turning to `O=C(Nc1cc(NCc2cn3cc(C4CC4)cc(N4CCN5CCC4C5)c3n2)ncn1)[C@H]1C[C@@H]1c1cccc(Cl)c1` (stereo partly drawn) [Example I-11, (1S,2S)-N-(6-(((8-(1,4-diazabicyclo[3.2.1]octan-4-yl)-6-cyclopropylimidazo[1,2-a]pyridin-2-yl)methyl)amino)pyrimidin-4-yl)-2-(3-chlorophenyl)cyclopropane-1-carboxamide], the EC50 in assay [1] was 1 to 10 nM. For the same compound, on plasma kallikrein, the IC90 fell in the range of 1500 to 10000 nM.

The values above are taken from patent US20240228488A1 (TAKEDA PHARMACEUTICAL COMPANY LIMITED, priority 2021, published 2024).
